Experimental data as given in patent US20060019329A1, “Method of screening for protein inhibitors and activators” (priority 1988, published 2006).

Tests used:
[1] = tested on: cell lines overproducing PKC; assay: Growth in agar of cell lines overproducing PKC (further screening of activators and inhibitors); type: cell-based, rat; details: PKC-overproducing cell lines; known activators or inhibitor of PKC
Protocol: Cells were seeded at a density of 10^4/plate in a series of 60 mm plates, in 5 ml DMEM plus 10% CS. Twenty-four hours later, cells in triplicate plates were trypsinized and counted. This point was designated “day 0.” The remaining cultures were then grown in the respective medium (i.e. plus or minus 100 ng/ml TPA) with fresh medium changes twice per week. Cell counts per plate were then determined on triplicate plates during the remainder of the growth curve (FIG. 3). The results obtained were analyzed for exponential doubling time and saturation density (Table 2). To assess growth in soft agar (anchorage independence), 2×10^4 cells were suspended in 2 ml of 0.3% Bacto agar (Difco Laboratories, Detroit, Mich.) in DMEM containing 20% fetal calf serum (FCS) and overlayed above a layer of 5 ml of 0.5% agar in the same medium, on 60 mm petri dishes. The cells were then overlaid with DMEM plus 20% FCS every 4 days. At the end of 30 days, colonies were stained with the vital stain 2-(p-iodophenyl)-3-(p-nitrophenyl)-5-phenyltetrazolinium chloride hydrate (INT) (Sigma Chemical Co., St. Louis, Mo.) for 48 hours at 37° C., in an incubator with 5% CO2 (Schaeffer and Friend, 1976), and the number of colonies counted under low power on an inverted phase microscope. The data are expressed as “cloning efficiency”, i.e. number of colonies greater than 0.05 mm per plate X 100 divided by the number of cells originally seeded per plate.
Additional compounds tested included the tumor promoters teleocidin, aplysiatoxin, and mezerein, all of which are known activators of PKC (O'Brian, et al., CSH, 1985).
Inhibition of the growth of the R6-PKC3 cells in agar in the presence of tamoxifen provided critical evidence that tamoxifen could inhibit PKC-mediated stimulation of cellular growth.

[2] = tested on: CHO/HIRC cells overproducing the human insulin receptor; assay: Morphologic and growth control effects of insulin on CHO/HIRC test cells; type: cell-based, Chinese Hamster; details: 400 nM insulin
From the text: (§1) These cell lines were generated using approaches analogous to those previously described for the PKC-overproducing cell lines. However, in these HIR studies we utilized a different expression vector, distinct cell lines, and an alternative method of gene transfer (direct transfection as opposed to virus-mediated transduction as used in the PKC experiments previously described). Briefly, CHO cells were co-transfected with the transfer vector pSVEneo (containing the neomycin resistance gene) and the expression vector pCVSVHIRc as previously described (White et al., 1988). After twenty four hours, the transfected cells were placed into 800 ug/ml G418 to select resistant cells. Approximately two weeks later, G418-resistant clones were isolated and subcloned. Clonal cell lines which express high levels of surface insulin receptors were selected by fluorescence-activated cell sorting. One such line (CHO/HIRC), which stably overproduced approximately 80,000 insulin receptors per CHO cell, was utilized in these experiments. A control CHO cell line (CHO/NEO), harboring only the pSVEneo transfer vector, were generated in analogous fashion. Detailed preliminary characterizations of this cell line have been described (White et al., 1988).
We then tested the ability of the CHO/HIRC and CHO/NEO cells to respond to the following insulin treatment protocol. Control cells, hereinafter termed CHO/NEO (which harbor pSVEneo alone), and the Test cells, termed CHO/HIRC (which stably overproduced about 80,000 insulin receptors per cell), were incubated in the presence and absence of insulin. Control (CHO/NEO) and Test (CHO/HIRC) cell lines were exposed to 400 nM of insulin and the resultant morphologic changes were observed and photographed using a Bausch and Lomb BL-200 phase-contrast microscope with a Nikon FM-200 camera attached.

[3] = tested on: CHO/NEO control cells; assay: Morphologic and growth control effects of insulin on CHO/NEO control cells; type: cell-based, Chinese Hamster; details: 400 nM insulin, 48 hours after treatment
From the text: as §1
We then tested the ability of the CHO/HIRC and CHO/NEO cells to respond to the following insulin treatment protocol. […]

Row | Compound | modulation of the growth of the cells [1] | morphologic changes ([2]; 24 hours after exposure) | adherence to the culture plate ([2]; 48 hours after treatment) | morphologic changes ([2]; after 18 hours) | adherence to the culture plate [3]
1 | CO[C@@H](CC[C@H](C)[C@H]1O[C@@]23C[C@H](OC(=O)C[C@H]([C@@H](C)O)OC(=O)C[C@](O)(O2)[C@H](C)CC3(C)C)[C@@H]1C)c1cc(O)ccc1Br [aplysiatoxin] | modulated the growth of the cells in the expected manner | – | – | – | –
2 | C=C(C)[C@@]12O[C@@]3(c4ccccc4)O[C@@H]1[C@@H]1[C@@H]4O[C@]4(CO)[C@@H](O)[C@]4(O)C(=O)C(C)=C[C@H]4[C@@]1(O3)[C@H](C)[C@H]2OC(=O)/C=C/C=C/c1ccccc1 [mezerein] | modulated the growth of the cells in the expected manner | – | – | – | –
3 | insulin | – | further pronounced | virtually all of the test cells had completely detached from the plate | profound morphologic changes | still largely intact
4 | teleocidin | modulated the growth of the cells in the expected manner | – | – | – | –
